{P} = phosphate
What was measured:
ABCG1 = ABCG1 knockdown efficiency (mRNA) in 3T3-L1 adipocytes; type: cell-based, mouse; settings: mature 3T3-L1 adipocytes, p<0.0005
Description: 3T3-L1 adipocytes. The 3T3-L1 preadipocytes (ATCC) were maintained in Dulbecco's modified Eagle medium (DMEM) supplemented with 10% calf serum and 2 mM glutamine. Differentiation of confluent preadipocytes was initiated with 250 nM insulin, 1250 nM dexamethasone and 250 μM 3-isobutyl-methyl-1-xanthine) in DMEM (4.5 g/L glucose) supplemented with 10% FBS. After 3 days, the culture medium was switched to DMEM (4.5 g/L glucose) supplemented with 10% FBS and 100 nM Insulin for 2 days. Then, 3T3-adipocytes were allowed to mature in DMEM (4.5 g/L glucose) containing 10% FBS, which was replaced every other day for 15 days. […]
(§1) Twenty-four hours following transfection with siRNA, Control and ABCG1 KD cells were washed twice with cold PBS and total RNA was extracted using a NucleoSpin RNA II kit (Macherey-Nagel) according to the manufacturer's instructions. Reverse transcription of RNA and real time quantitative PCR using a LightCycler LC480 (Roche) were performed as previously described (Larrede et al., 2009). Expression data were based on the crossing points calculated with the software for LightCycler data analysis and corrected for PCR efficiencies of the target and the reference gene. When indicated, data were expressed as a fold change in mRNA expression relative to control values.

LPL [1] = test: Secreted LPL activity in culture media of 3T3-L1 adipocytes; type: cell-based, mouse; settings: ABCG1 KD 3T3-L1 adipocytes, p<0.05
Description: (§2) 3T3-L1 adipocytes. The 3T3-L1 preadipocytes (ATCC) were maintained in Dulbecco's modified Eagle medium (DMEM) supplemented with 10% calf serum and 2 mM glutamine. Differentiation of confluent preadipocytes was initiated with 250 nM insulin, 1250 nM dexamethasone and 250 μM 3-isobutyl-methyl-1-xanthine) in DMEM (4.5 g/L glucose) supplemented with 10% FBS. After 3 days, the culture medium was switched to DMEM (4.5 g/L glucose) supplemented with 10% FBS and 100 nM Insulin for 2 days. Then, 3T3-adipocytes were allowed to mature in DMEM (4.5 g/L glucose) containing 10% FBS, which was replaced every other day for 15 days.
(§3) Cell culture medium from either macrophage or adipocyte cultures was replaced by a serum-free medium containing 10 U/mL heparin (Choay) and the cells were subsequently incubated for 24 h at 37° C. Culture medium was then collected and stored at −80° C. until determination of LPL activity and cells were lysed overnight in 0.2 N NaOH. Cell protein was quantified using the BCA assay (Pierce). LPL activity was determined using a 50-μl aliquot of culture medium ( 1/10 of total volume), or plasma when indicated, according to the procedure previously described (Stengel et al., 1998). Results are expressed as units of LPL activity (1 U of LPL activity correspond to 1 nmol free fatty acid liberated/min/mg cell protein). […]

3T3-L1 preadipocytes = test: Cellular triglyceride content during maturation of 3T3-L1 preadipocytes into adipocytes; type: cell-based, mouse; settings: silencing in preadipocytes at D0; after 4 days of differentiation, p<0.05
Description: as §2
(§4) Quantification of total cellular triglyceride and cholesterol mass was performed as previously described (Milosavljevic et al., 2003).
(§5) Ten-day differentiated HMDM were grown in 24-well plates and transfected with 50 nM control siRNA (Dharmacon) or siRNA targeting human ABCG1 using lipofectamine RNAiMax (Invitrogen) according to the manufacturer's instructions. Transfection of 3T3-L1 preadipocytes and mature adipocytes with siRNA was achieved using the Nucleofector® technology (Lonza) according to the manufacturer's protocol. For each experiment, 2×10^6 cells and 100 pmol siRNA were diluted in 100 μl of V solution and processed with A-033 program.

[2] = tested on: human monocyte-derived macrophages (HMDM); test: VLDL-induced cellular triglyceride and cholesterol accumulation in HMDM; type: cell-based; settings: 50 μg/mL VLDL, 24 h
Description: as §4, §5

LPL [3] = test: Secreted LPL activity in culture media of HMDM after heparin; type: cell-based, human; settings: ABCG1 KD HMDM, after heparin treatment, p=0.02
Description: (§6) Human Macrophages. Human THP-1 monocytic cells (ATCC) and a THP-1 clone stably transfected with an shRNA targeting human ABCG1, in which ABCG1 expression is stably knocked down (ABCG1 SKD), were cultured and differentiated into macrophage-like cells as previously described (Larrede et al., 2009). Circulating human monocytes were isolated from the blood of individual healthy normolipidemic donors (Etablissement Français du Sang, EFS) on Ficoll gradients (Ficoll-Paque PLUS, GE Healthcare) and subsequently differentiated into human macrophages (HMDM) following the procedure previously reported (Larrede et al., 2009).
as §3

[4] = tested on: SDC1, SDC2, VLDL-r, LRP, apoE, LDL-r; test: Relative mRNA levels of proteoglycan core proteins, lipoprotein receptors and apoE in HMDM; type: cell-based, human
Description: as §5, §1

LPL mRNA = LPL mRNA levels by real-time quantitative PCR in HMDM; type: cell-based, human; settings: ABCG1 KD HMDM, p<0.05
Description: as §5, §1

LPL [5] = test: Flow cytometry of cell surface LPL in THP-1 macrophages; type: cell-based, human; settings: ABCG1 KD THP-1 macrophages, p<0.05
Description: as §6
Human THP-1 macrophages were cultured in 12-well plates (2.106 cells/well) and incubated in serum-free media in the presence or in the absence of 10 U/mL heparin (Choay) for 24 h at 37° C. following siRNA transfection. Cells were then washed and harvested in cold PBS. After brief centrifugation (2000 rpm, […]) at 4° C., cells were pre-incubated with 100 μl of human Fc Blocker (BD Pharmingen; 1:400 in PBS/BSA 1%) for 10 min at 4° C., and incubated with a monoclonal mouse antibody directed against human LPL (abcam; 1:100) for a further 15 min at 4° C. […] Cells were analyzed on an FC 500 flow cytometer (Beckman Coulter) using Epics XL32 software.

LPL [6] = test: Confocal microscopy of LPL at the cell surface of HMDM; type: cell-based, human; settings: ABCG1 KD HMDM vs control
Description: Cells were blocked for 60 minutes with 3% BSA in PBS and then incubated with an anti-hLPL antibody (Abcam; 1:300) overnight at 4° C. After washing, a biotinylated goat anti-mouse IgG secondary antibody (1:1000; BD Pharmingen) was added, followed by the addition of streptavidin-horseradish peroxidase. The signal was enhanced using the tyramide signal amplification (TSA) kit (PerkinElmer) according to the manufacturer's protocol; cells were counterstained for nuclei with DAPI (Invitrogen). Confocal microscopy was performed using a Right confocal microscope Olympus FV-1000 with a 60× objective.

human ABCG1 = test: siRNA silencing of ABCG1 in HMDM, Western blot of total ABCG1 protein; type: cell-based; settings: HMDM transfected with 50 nM siRNA vs control siRNA
Description: as §6
Silencing of ABCG1 expression was performed by application of siRNA oligonucleotides (Dharmacon) targeted to the cDNA sequence of either the human ABCG1 gene (Genebank #AY048757):
Ten-day differentiated HMDM were grown in 24-well plates and transfected with 50 nM control siRNA (Dharmacon) or siRNA targeting human ABCG1 using lipofectamine RNAiMax (Invitrogen) according to the manufacturer's instructions. […]
Cell proteins were extracted using 200 μL M-PER reagent (Pierce) containing protease inhibitors and were subsequently separated on a 4-12% Bis-Tris gel (Invitrogen). […] ABCG1 was detected using rabbit anti-hABCG1 (NB400-132; Novus) at 1:500 and goat anti-rabbit/HRP (Dako) at 1:15000.

In the case of “5′-GCGAAGCUGUACCUGGAUU-UU / 5′-P-AAUCCAGGUACAGCUUCGC-UU-3′ (sense GCGAAGCUGUACCUGGAUUUU; antisense AAUCCAGGUACAGCUUCGCUU; siRNA; sense: RNA, backbone not given here; antisense: RNA, 5' {P}, backbone not given here) [siRNA targeting mouse Abcg1]”, the “inhibition of ABCG1 (mRNA), change vs control” value (ABCG1) is reported as −77%, the “LPL activity in media, change vs control cells” value (LPL [1]) is reported as −81% and the “intracellular TG accumulation during adipocyte maturation, change vs control cells” value (3T3-L1 preadipocytes) is reported as −22%.
For `CCCCCCCCCCC[C@@H](C[C@@H]1OC(=O)[C@H]1CCCCCC)OC(=O)[C@H](CC(C)C)NC=O` [THL, Tetrahydrolipstatin, reference compound], the “TC accumulation induced by VLDL, change” value ([2]; control HMDM, 10 μM THL) was −75% and the “TG accumulation induced by VLDL, change” value ([2]; control HMDM, 10 μM THL) was −43%.
In the case of “5′-UCAUUGGCCUGCUGUACUU-UU-3 / 5′-P-AAGUACAGCAGGCCAAUGA-UU-3′ (sense UCAUUGGCCUGCUGUACUUUU; antisense AAGUACAGCAGGCCAAUGAUU; siRNA; sense: RNA, backbone not given here; antisense: RNA, 5' {P}, backbone not given here) [siRNA specific for the human ABCG1 gene]”, the “secreted LPL activity, change vs control HMDM” value (LPL [3]) is reported as −52%, the “relative mRNA levels of SDC1, SDC2, VLDL-r, LRP and apoE” value ([4]; ABCG1 KD human macrophages vs control) is reported as “not altered” and the “LDL-receptor (LDL-r) expression, induction vs control cells” value ([4]; ABCG1 KD macrophages, p<0.01) is reported as 2 fold. For the same compound, the “VLDL-induced accumulation of cholesterol” value ([2]; ABCG1 KD HMDM) was “completely abolished”, the “VLDL-induced accumulation of TG, change vs control cells” value ([2]; ABCG1 KD HMDM, p<0.01) was −38% and the “LPL expression (mRNA), change vs control HMDM” value (LPL mRNA) was “+28%”. For the same compound, the “expression of LPL at the cell surface (flow cytometry), change vs control cells” value (LPL [5]) was “+48%”, the “abundance of LPL detected at the cell surface after heparin treatment” value (LPL [6]; 10 U/mL heparin) was “still remained higher than that in control HMDM” and the “LPL expression at the cell surface (confocal microscopy)” value (LPL [6]; without heparin) was “much more pronounced than in control cells”. For the same compound, the “ABCG1 expression (total ABCG1 protein, Western blot)” value (human ABCG1) was “almost complete abolition”.

Source: patent US20130289099A1, “ABCG1 GENE AS A MARKER AND A TARGET GENE FOR TREATING OBESITY” (UNIVERSITE PIERRE ET MARIE CURIE (PARIS 6), priority 2010, published 2013)
